Data: US20220202872A1, “METHOD FOR GENERATING A THREE-DIMENSIONAL NEUROMUSCULAR ORGANOID IN VITRO” (MAX-DELBRÜCK-CENTRUM FÜR MOLEKULARE MEDIZIN IN DER …, priority 2020, published 2022)
“Also recorded” adds a separate entry of the source.

Key:
[1] = tested on: NMOs; assay: Microelectrode array (MEA) recording of whole organoids; type: cell-based, human; conditions: for suppression of electrical activity: APV 50 uM and CNQX 40 uM applied together, glutamate receptor inhibitors; for local (single electrode) firings / synchronous network activity (paired electrode spikes) / rhythmic, central pattern generator-like activity: NMDA and 5-HT applied together; for local (single electrode) firings / synchronous network activity (paired electrode spikes): day 50, FIG. 6G legend: 50 uM NMDA/40 uM 5-HT; for electrical activity triggered by NMDA/5-HT cocktail: cocktail of NMDA (10 uM) and 5-HT (40 uM), applied together
[2] = tested on: NMOs; assay: Contraction analysis of neuromuscular organoids before and after curare; type: cell-based, human; conditions: curare 10 uM; before vs after treatment
Experimental: To investigate the functionality of NMJs, the contractile activity of NMOs was measured before and after treatment with Curare (10 uM), a blocker of AChRs.
Video segments of equal length were recorded using a bright-field microscope (DMI1, Leica) in 3 different regions of the same organoid using 20× zoom. To quantify muscle contractions, each movie was analyzed separately where each visible contraction was counted and then averaged for the whole organoid.
To analyze and map organoid muscular contraction, bright field time series images were automatically thresholded using ImageJ software to identify organoid border. A binary stack was created and contractile regions were visually identified. Regions of interest were defined and variations of organoid area (in pixel), used as a proxy of physical contraction, were plotted over the time series.

For `CC(=O)OCC[N+](C)(C)C` [acetylcholine], the “increase of electrical activity” value ([1]; acetylcholine 10 uM stimulation, day 50 NMOs) was “approximately 10 fold”.
For `N[C@@H](CCC(=O)O)C(=O)O` [glutamate], the “increase of spontaneous electrical activity” value ([1]; acute glutamate 50 uM, day 30 and day 50 organoids) was “approximately 12 fold”.
With `N[C@@H](CCCP(=O)(O)O)C(=O)O` [APV] the “suppression of electrical activity” value [1] was “reversibly suppressed nearly all electrical activity”.
For `N#Cc1cc2[nH]c(=O)c(=O)[nH]c2cc1[N+](=O)[O-]` [CNQX], the “suppression of electrical activity” value [1] was “reversibly suppressed nearly all electrical activity”.
curare was tested, and the “block of acetylcholine-stimulated electrical activity” value ([1]; curare 10 uM added after acetylcholine 10 uM, day 50 NMOs) was “rapidly and reversibly blocked” and the “contraction of the skeletal muscles (contractile activity of NMOs)” value [2] was “blocked the contraction; also recorded: organoid relaxation”.
In the case of `NCCc1c[nH]c2ccc(O)cc12` [5-HT, Serotonin], the “local (single electrode) firings” value [1] is reported as “increased single firings; also recorded: notable increase”, the “synchronous network activity (paired electrode spikes)” value [1] is reported as “increase in paired electrode spikes; also recorded: dramatic increase” and the “rhythmic, central pattern generator-like activity” value ([1]; day 50 NMOs) is reported as “central pattern generator-like activity; also recorded: became rhythmic; also recorded: produced rhythmic bursts of electrical activity”. For the same molecule, the “electrical activity triggered by NMDA/5-HT cocktail” value [1] was “instantaneously triggered strong activity”.
With `NC1=N[C@H](O)[C@H]2[C@H]3O[C@]4(O)O[C@@H]([C@@H](O)[C@@]2(N1)[C@@H]4O)[C@]3(O)CO` [tetrodotoxin] the “suppression of NMDA/5-HT-triggered activity” value [1] was “reversibly suppressed”.
For `CN[C@H](CC(=O)O)C(=O)O` [NMDA], the “local (single electrode) firings” value [1] was “increased single firings; also recorded: notable increase”, the “synchronous network activity (paired electrode spikes)” value [1] was “increase in paired electrode spikes; also recorded: dramatic increase” and the “rhythmic, central pattern generator-like activity” value ([1]; day 50 NMOs) was “central pattern generator-like activity; also recorded: became rhythmic; also recorded: produced rhythmic bursts of electrical activity”. The “electrical activity triggered by NMDA/5-HT cocktail” value [1] was “instantaneously triggered strong activity”.
